# Species on record: Rattus norvegicus
# Assay: DrugMatrix - Regimen: Daily Repeat
# Assay type: toxicity, organism-based, Sprague-Dawley
# Set-up: regimen Daily Repeat, gender Male, age 6-8 weeks
# Settings: in vivo, po, route oral GAVAGE, vehicle 100 % WATER; for ABSOLUTE BASOPHIL / ABSOLUTE EOSINOPHIL / ABSOLUTE LYMPHOCYTE / ABSOLUTE MONOCYTE / ABSOLUTE SEGMENTED NEUTROPHIL / BASOPHIL / EOSINOPHIL / ERYTHROCYTE COUNT / HEMATOCRIT / HEMOGLOBIN / LEUKOCYTE COUNT / LYMPHOCYTE / MEAN CORPUSCULAR HEMOGLOBIN / MEAN CORPUSCULAR HEMOGLOBIN CONCENTRATION / MEAN CORPUSCULAR VOLUME / MONOCYTE / NEUTROPHIL / NUCLEATED RED BLOOD CELLS / PLATELET COUNT: tissue Blood; for ALANINE AMINOTRANSFERASE / ALBUMIN / ALKALINE PHOSPHATASE / ASPARTATE AMINOTRANSFERASE / BLOOD UREA NITROGEN / CARBON DIOXIDE / CHLORIDE / CHOLESTEROL / CREATINE PHOSPHOKINASE / CREATININE / GLUCOSE / LACTATE DEHYDROGENASE / LIPASE / PHOSPHORUS / POTASSIUM / SODIUM / TOTAL BILIRUBIN / TOTAL PROTEIN / URIC ACID: tissue Plasma
# [1] = 0 mg/kg, 72 h, dose level Control, time 3 day
# [2] = 0 mg/kg, 120 h, dose level Control, time 5 day
# [3] = 100 mg/kg, 72 h, dose level Low, time 3 day
compound,measurement,setting,value
NC(=O)c1cccnc1 [NIACINAMIDE],ABSOLUTE BASOPHIL,[1],0 CELLS/uL
same,ABSOLUTE EOSINOPHIL,[1],46 CELLS/uL
same,ABSOLUTE LYMPHOCYTE,[1],10225.67 CELLS/uL
same,ABSOLUTE MONOCYTE,[1],319.33 CELLS/uL
same,ABSOLUTE SEGMENTED NEUTROPHIL,[1],1242.33 CELLS/uL
same,BASOPHIL,[1],0%
same,EOSINOPHIL,[1],0.33%
same,ERYTHROCYTE COUNT,[1],5.17 x10E6/uL
same,HEMATOCRIT,[1],33.43%
same,HEMOGLOBIN,[1],12.55 G/DL
same,LEUKOCYTE COUNT,[1],11.83 x10E3/uL
same,LYMPHOCYTE,[1],86.5%
same,MEAN CORPUSCULAR HEMOGLOBIN,[1],24.35 pg
same,MEAN CORPUSCULAR HEMOGLOBIN CONCENTRATION,[1],37.57 G/DL
same,MEAN CORPUSCULAR VOLUME,[1],64.8 fL
same,MONOCYTE,[1],2.67%
same,NEUTROPHIL,[1],10.5%
same,NUCLEATED RED BLOOD CELLS,[1],0.17 /100WBC
same,PLATELET COUNT,[1],1026.17 x10E3/uL
same,ALANINE AMINOTRANSFERASE,[1],52.67 u/L
same,ALBUMIN,[1],4.17 G/DL
same,ALKALINE PHOSPHATASE,[1],331 u/L
same,ASPARTATE AMINOTRANSFERASE,[1],92.33 u/L
same,BLOOD UREA NITROGEN,[1],15.33 mg/dL
same,CARBON DIOXIDE,[1],26.17 mmol/L
same,CHLORIDE,[1],103.17 MEQ/L
same,CHOLESTEROL,[1],73.67 mg/dL
same,CREATINE PHOSPHOKINASE,[1],472.83 u/L
same,CREATININE,[1],0.29 mg/dL
same,GLUCOSE,[1],178.5 mg/dL
same,LACTATE DEHYDROGENASE,[1],244.83 u/L
same,LIPASE,[1],10.67 u/L
same,PHOSPHORUS,[1],12.45 mg/dL
same,POTASSIUM,[1],6.35 MEQ/L
same,SODIUM,[1],144.27 MEQ/L
same,TOTAL BILIRUBIN,[1],0.13 mg/dL
same,TOTAL PROTEIN,[1],5.77 G/DL
same,URIC ACID,[1],2.08 mg/dL
same,ABSOLUTE BASOPHIL,[2],0 CELLS/uL
same,ABSOLUTE EOSINOPHIL,[2],23.5 CELLS/uL
same,ABSOLUTE LYMPHOCYTE,[2],12797.33 CELLS/uL
same,ABSOLUTE MONOCYTE,[2],465.5 CELLS/uL
same,ABSOLUTE SEGMENTED NEUTROPHIL,[2],1313.67 CELLS/uL
same,BASOPHIL,[2],0%
same,EOSINOPHIL,[2],0.17%
same,ERYTHROCYTE COUNT,[2],5.76 x10E6/uL
same,HEMATOCRIT,[2],36.72%
same,HEMOGLOBIN,[2],13.72 G/DL
same,LEUKOCYTE COUNT,[2],14.6 x10E3/uL
same,LYMPHOCYTE,[2],87.5%
same,MEAN CORPUSCULAR HEMOGLOBIN,[2],23.8 pg
same,MEAN CORPUSCULAR HEMOGLOBIN CONCENTRATION,[2],37.35 G/DL
same,MEAN CORPUSCULAR VOLUME,[2],63.72 fL
same,MONOCYTE,[2],3.17%
same,NEUTROPHIL,[2],9.17%
same,NUCLEATED RED BLOOD CELLS,[2],0.33 /100WBC
same,PLATELET COUNT,[2],1270.67 x10E3/uL
same,ALANINE AMINOTRANSFERASE,[2],50.5 u/L
same,ALBUMIN,[2],4.32 G/DL
same,ALKALINE PHOSPHATASE,[2],339.67 u/L
same,ASPARTATE AMINOTRANSFERASE,[2],88 u/L
same,BLOOD UREA NITROGEN,[2],17 mg/dL
same,CARBON DIOXIDE,[2],25 mmol/L
same,CHLORIDE,[2],103.83 MEQ/L
same,CHOLESTEROL,[2],71.33 mg/dL
same,CREATINE PHOSPHOKINASE,[2],281.83 u/L
same,CREATININE,[2],0.26 mg/dL
same,GLUCOSE,[2],161.67 mg/dL
same,LACTATE DEHYDROGENASE,[2],191.17 u/L
same,LIPASE,[2],10.17 u/L
same,PHOSPHORUS,[2],11.72 mg/dL
same,POTASSIUM,[2],6.76 MEQ/L
same,SODIUM,[2],145.17 MEQ/L
same,TOTAL BILIRUBIN,[2],0.2 mg/dL
same,TOTAL PROTEIN,[2],6.15 G/DL
same,URIC ACID,[2],2 mg/dL
same,ABSOLUTE BASOPHIL,[3],0 CELLS/uL
same,ABSOLUTE EOSINOPHIL,[3],0 CELLS/uL
same,ABSOLUTE LYMPHOCYTE,[3],11521.67 CELLS/uL
same,ABSOLUTE MONOCYTE,[3],217.67 CELLS/uL
same,ABSOLUTE SEGMENTED NEUTROPHIL,[3],794 CELLS/uL
same,BASOPHIL,[3],0%
same,EOSINOPHIL,[3],0%
same,ERYTHROCYTE COUNT,[3],5.92 x10E6/uL
same,HEMATOCRIT,[3],38.23%
same,HEMOGLOBIN,[3],14.33 G/DL
same,LEUKOCYTE COUNT,[3],12.53 x10E3/uL
same,LYMPHOCYTE,[3],92.33%
same,MEAN CORPUSCULAR HEMOGLOBIN,[3],24.2 pg
same,MEAN CORPUSCULAR HEMOGLOBIN CONCENTRATION,[3],37.47 G/DL
same,MEAN CORPUSCULAR VOLUME,[3],64.53 fL
same,MONOCYTE,[3],1.67%
same,NEUTROPHIL,[3],6%
same,NUCLEATED RED BLOOD CELLS,[3],0.33 /100WBC
same,PLATELET COUNT,[3],1202 x10E3/uL
same,ALANINE AMINOTRANSFERASE,[3],47.67 u/L
same,ALBUMIN,[3],4.43 G/DL
same,ALKALINE PHOSPHATASE,[3],308.33 u/L
same,ASPARTATE AMINOTRANSFERASE,[3],89 u/L
same,BLOOD UREA NITROGEN,[3],17.67 mg/dL
same,CARBON DIOXIDE,[3],25.67 mmol/L
same,CHLORIDE,[3],103.67 MEQ/L
same,CHOLESTEROL,[3],87.33 mg/dL
same,CREATINE PHOSPHOKINASE,[3],322 u/L
same,CREATININE,[3],0.26 mg/dL
same,GLUCOSE,[3],158 mg/dL
same,LACTATE DEHYDROGENASE,[3],344 u/L
same,LIPASE,[3],11.67 u/L
same,PHOSPHORUS,[3],13.47 mg/dL
same,POTASSIUM,[3],6.73 MEQ/L
same,SODIUM,[3],147.7 MEQ/L
same,TOTAL BILIRUBIN,[3],0.2 mg/dL
same,TOTAL PROTEIN,[3],6.2 G/DL
same,URIC ACID,[3],2.6 mg/dL

# — ChEMBL document CHEMBL3885881, “DrugMatrix”
